Data set [1] has as its system HGC-27, K562/A02, A549, HT-1080 cells. Nature of the data set: Tumor cell proliferation (MTT or CCK-8). It is filed as cell-based, human. Particulars: 48 h, FIG. 5-8. An excerpt: Experimental cells: gastric cancer cell line HGC-27, non-small cell lung cancer A549, human chronic myeloid leukemia cells doxorubicin resistant strains K562/A02, human fibrosarcoma HT-1080, human chronic myeloid leukemia cell K562.
Experimental materials: PAC-1 needle crystal (prepared according to the method described in Quinn P. Peterson et al., J. Med. Chem. 2009, 52, 5721-5731), MTT solution (Amresco specification: 1 g, batch number: 2035B358), DMSO (Analytical Pure, Beijing Chemical Factory), 96-well plates (Corning), CCK-8 (Japanese Tongren Chemical Research Institute, specification: 500test, batch number: DJ706), fetal bovine serum was the product from the United States GIBCO, batch number: 608759, RPMI-1640 is the product of Hyclone, batch number: NWK0492, 0.25% Trypsin-EDTA is the product from the United States GIBCO company, batch number: 10T774768, DMSO: USA Sigma Corporation.
The cells in logarithmic growth phase were collected. The cells was digested and the cell density was adjusted into 1-5×10^5 cells/mL, 100 μL per well in 96-well culture plate. The plated was cultured in a incubator with 37 ? , 5% CO2 saturated humidity. After adherent, different concentrations of PAC-1 and ZYS-1 were added for dosing groups. 6 dosage groups were set, with at least three parallel wells set in each group. […]

The subject of the next data set is HUVEC. Nature of the data set: HUVEC tubule formation assay. The format is cell-based. As to the method:
Tubule formation assay: the matrigel was thawed at 4° C. overnight, which was 1:1 diluted with serum-free ECM medium and coated onto 96-well plates. The diluted matrigel was sucked by precooled pipette gun tip, which was added into pre-cooled 96-well plates, with 50 μL per well. The matrigel was placed on ice for 5 min to make the matrigel surface level, and then the 96-well plates were put into a cell incubator at 37° C. for 1 h to cause gel coagulation. Trypsinize cells, the cells were counted and diluted with ECM medium. The cell density was adjusted to […], and the cells were seeded into coated 96-well plates with 100 μL per well. According to the MTT results, the ZYS-1 solution at different concentrations were formulated. 100 μL of the solutions were taken and added into the cell-seeded wells to make the final concentration at 2, 1, 0.5 μM. At the same time, the positive control was set as recombinant human endostatin (Endostar) and the negative control as without drugs but medium only. Each concentration of the experimental groups and the control groups all were set three replicates, which were placed and cultured in the incubator. After culturing 18 h, the culture was observed under microscope and taken the pictures to record the circumference, area of the generated tubes and the number of nodes as indicators for the formation of tubule. […]

The next data set has as its system HT-1080 cells. Nature of the data set: Three-dimensional migration (Transwell assay), HT-1080. It is filed as cell-based, human. Particulars: for Cell number (transmembrane cells): 24 h, n = 9. As to the method:
Starved cells were digested and collected, which were suspended in serum-free medium. The cell intensity was adjusted into 3×10^5 s cells/mL. 100 μL of the cell suspension was added into the upper chamber and 700 μL of medium with 10% serum to the lower chamber per well. According to the experimental design, 50 μL serum-free medium was added per well for the control group, 50 μL of drug-containing serum-free medium was added for the administration groups. They were continued to be cultured in the incubator for another 24 h. The upper chamber was taken, with methanol fixation for 30 min, dyed with Giemsa stain for 30 min, rinsed with clean water twice. The cells on the bottom membrane surface of the upper chamber were carefully wiped off with a wet cotton swab, dried in the air. With the bottom up, they were transferred onto glass slide and sealed with neutral gum. Under the microscope, nine random fields were taken and the transmembrane cells therein were counted. The average values were statistically calculated.

The test system of a further data set is VEGF. Nature of the data set: VEGF protein expression in HGC-27 cells (immunofluorescence). It is filed as cell-based. As to conditions: n = 6. As to the method: The sterilized cell transfer membrane was taken and placed into a 24-well plate, which was seeded with 1 mL (1×10^5 cells/mL) cell suspension, and cultured for 24 h. Drug-containing medium was added, The negative control groups and administration groups were set, with the experimental groups intervened for 24-48 h. The plate was washed with PBS, and fixed with 4% paraformaldehyde for 15 min. It was treated with 0.1% TritonX-100, and washed with PBS, blocked with 1:10 diluted normal serum blocking solution for 15 min. The plate was added 1:100 diluted primary antibody, placed at 4° C. overnight. The plate was washed with PBS, to which 1:100 diluted secondary antibodies was added and incubated at room temperature for 30 min. The plate was washed with PBS, to which 1:100 diluted SABC-FITC was added, and re-incubated at room temperature for additional 30 min. The unbound FITC was washed with PBS. We observed and taken pictures under fluorescence microscope, and analyzed the fluorescence intensity by Bioflux Montage software. 6 fields were selected randomly under microscope for each group and the integral optical density value of cells was calculated.

The nature of data set [2]: Solubility comparison of ZYS-1 and PAC-1 needle crystal (HPLC). The format is physicochemical. Particulars: room temperature. As to the method:
The appropriate amounts of ZYS-1 and PAC-1 needle crystal were dissolved into the appropriate amount of methanol, absolute ethanol, 95% ethanol, acetonitrile, ethyl ether, ethyl acetate, propanol, acetone, respectively, and sonicated for 1 hour, then left at room temperature for 24 hours to obtain the oversaturated solution. After centrifugation at 4000 r/min for 5 min, the supernatant was diluted appropriately and filtered through a 0.45 μm needle filter. The concentration was determined by HPLC and the solubility was calculated.

Experiment in data set [3]: as above
As to conditions: Water, room temperature. It is filed as physicochemical.

[4] abbreviates: Homo sapiens, HT-1080, 24 h, read-out: Inhibition Rate.

Converted amounts (≈) assume the structure as drawn.

Data on one molecule can be found in patent publication US20180201594A1, “Compound pac-1 or salt thereof and pharmaceutical composition comprising same” (priority 2015, published 2018).

One may read the inhibition as the percentage by which the read-out fell short of the control. The Solubility is how much of the substance goes into solution per volume. A higher Solubility goes with a readily soluble substance. Take `C=CCc1cccc(/C=N/NC(=O)CN2CCN(Cc3ccccc3)CC2)c1O` [ZYS-1, 1-Piperazineacetic acid, 4-(phenylmethyl)-2-[[2-hydroxy-3-(2-propen-1-yl)phenyl]methylene]]: the “antitumor efficacy (cell proliferation) compared with PAC-1 needle crystal” value in data set [1] was “stronger antitumor efficacy than PAC-1 needle crystal”. In addition, in the data set with HUVEC (2 μM ZYS-1 group), the “inhibition of tubule formation compared with positive control 2.5 μg/mL Endostar” value is “similar”. Further, the “effect on formation of endothelial cell tubules induced in vitro” value in the data set with HUVEC (2, 1, 0.5 μM, 18 h) is reported as “strong inhibitory effect”. Further, the “Cell number (transmembrane cells)” value in the data set with HT-1080 cells (2 μM) was determined as 24.67 ± 8.46; in the data set on HT-1080 cells (4 μM) it was 16.58 ± 4.18; in the data set on HT-1080 cells (8 μM) it was 16.08 ± 5.07. Also, in the data set on HT-1080 cells (setting [4]), the inhibition at 2 µM is 33.5%. Moreover, the inhibition at 4 µM in the data set on HT-1080 cells (setting [4]) turned out to be 55.3%. The inhibition at 8 µM with HT-1080 cells (setting [4]) came to 56.6%. Also, the results for the “VEGF protein expression (integral optical density value)” value in the data set on VEGF (4 μM) and in the data set with VEGF (8 μM) were 31.17 ± 0.24 and 30.51 ± 0.32, respectively. Moreover, the Solubility in data set [2] (95% ethanol) turned out to be 18.51 mg/mL (≈ 47.2 mM); in data set [2] (Absolute ethanol), 23.53 mg/mL (≈ 59.9 mM); in data set [2] (Acetone), 128.97 mg/mL (≈ 329 mM); in data set [2] (Acetonitrile) it was 28.74 mg/mL (≈ 73.2 mM); in data set [2] (Chloroform), 344.73 mg/mL (≈ 878 mM); in data set [2] (Diethyl ether) it was 6.31 mg/mL (≈ 16.1 mM). In addition, the Solubility in data set [2] (Ethyl acetate) was determined as 40.08 mg/mL (≈ 102 mM); in data set [2] (Methanol), 35.15 mg/mL (≈ 89.6 mM); in data set [2] (Propanol), 25.55 mg/mL (≈ 65.1 mM); in data set [3] it was 5.6 µg/mL (≈ 0.0143 mM).
